Several values for one entry are separate records, joined by “and”; a condition that tells them apart may be missing. Equal values may be shown once.
Legend:
PHD2 [1] = target: T1, PHD2 (Homo sapiens, UniProt Q9GZT9); assay: Time course of PHD2-catalyzed peptide hydroxylation; type: biochemical; settings: 4 μM PHD2, 100 μM peptide, 50 μM Fe(II), 300 μM 2OG, 1 mM L-ascorbate, 50 mM HEPES pH 7.5, 37 °C, atmospheric O2; MALDI-TOF-MS; triplicate assays
T1 construct: The catalytic domain of PHD2 (residues 181–426) was purified as described; made in house
Experimental: Enzymatic assays were conducted as described ([46], [47]). Unless otherwise stated, the assay mixture typically contained 5 μM FIH, 500 μM substrate, 500 μM 2OG, 1 mM L-ascorbate, and 50 μM Fe(NH4)2(SO4)2 or 4 μM PHD2, 100 μM substrate, 300 μM 2OG, 4 mM L-ascorbate, and 50 μM Fe(NH4)2(SO4)2. For HIF-1α CODD19-mer, the background levels of methionine oxidation resulting from assay conditions were subtracted based on non-enzymatic controls ([48]).
FIGURE 3. PHD2- and FIH-catalyzed hydroxylation of HIF-1/2α peptide substrates. A, time course of HIF-1/2α CODD19-mer peptide hydroxylation; B, time course of HIF-1/2α NODD19-mer peptide hydroxylation. Conditions were as follows: 4 μM PHD2, 100 μM peptide, 50 μM Fe(II), 300 μM 2OG, 1 mM L-ascorbate in HEPES 50 mM (pH 7.5) were incubated at 37 °C at atmospheric O2. C, time course of HIF-1α CAD 19- and 35-mer peptide hydroxylation. D, time course of HIF-2α CAD 19- and 35-mer peptide hydroxylation. Conditions were as follows: 5 μM FIH, 500 μM peptide, 50 μM Fe(II), 500 μM 2OG, 1 mM L-ascorbate in HEPES 50 mM (pH 7.5) were incubated at 37 °C at atmospheric O2. The different hydroxylation levels were analyzed by MALDI-TOF-MS. Error bars, S.D. of triplicate assays.

PHD2 [2] = target: T1, PHD2; assay: Stopped-flow UV-visible spectroscopy, PHD2·Fe(II)·2OG·substrate + O2; type: biochemical; settings: anaerobic 0.8 mM PHD2, 1 mM peptide, 5 mM 2OG, 50 mM HEPES pH 7.5, mixed 1:1 with O2-saturated buffer at 5 °C, double exponential fit; for Stopped-flow, 520 nm (PHD2) kfall phase: traces average of triplicate
Experimental: Stopped-flow UV-visible spectroscopy experiments were performed as described previously ([32], [42]). […] The reaction was observed over 1000 s using a photodiode array detector, and kinetic traces were analyzed using Origin version 8.51 software. Data were fitted with a double exponential function (y = A1 × exp(−kriset) + A2 × exp(−kfallt) + y0). The A1, A2, and y0 parameters were restricted with upper limits to match the observed amplitude/offset changes.
Previously reported pre-steady-state kinetic studies on PHD2 focused on its reaction with CODD HIF-1α 19-mer peptide ([38], [42]); there is no reported information on the rates of PHD2 reaction with O2 in the presence of NODD HIF-1α or HIF-2α substrates. To ascertain whether a slow reaction with O2 under pre-steady-state conditions is common to PHD2-catalyzed hydroxylation of both CODD and NODD, we investigated the reaction of PHD2 with NODD substrates in comparison with CODD for both HIF-1α and HIF-2α. Pre-steady-state reactions of PHD2 were initiated by rapid mixing of anaerobic PHD2·Fe(II)·2OG·HIF-α complexes with O2-saturated buffer at 5 °C. Reactions were initially observed using a photodiode array detector, and difference spectra (in comparison with the reaction with O2-free buffer) were subsequently analyzed.
FIGURE 5. Pre-steady-state kinetics of PHD2-catalyzed HIF-1/2α hydroxylation. […] B, stopped-flow kinetic traces at 520 nm showing absorbance changes in control experiments: Fe(II) only, mix of Fe(II) and 2OG, reaction of PHD2·Fe(II)·2OG complex with O2 in the absence of CODD; reaction of PHD2·Fe(II)·N-oxalylglycine (NOG)·CODD complex with O2. N-Oxalylglycine is an inhibitor of 2OG oxygenases. […] The kinetic traces represent the average of triplicate assays. E, HIF-1/2α peptide hydroxylation, as determined by MALDI-TOF-MS. Reactions were quenched with 1% CF3CO2H at defined time points.

T1 sequence (Q9GZT9 181-426): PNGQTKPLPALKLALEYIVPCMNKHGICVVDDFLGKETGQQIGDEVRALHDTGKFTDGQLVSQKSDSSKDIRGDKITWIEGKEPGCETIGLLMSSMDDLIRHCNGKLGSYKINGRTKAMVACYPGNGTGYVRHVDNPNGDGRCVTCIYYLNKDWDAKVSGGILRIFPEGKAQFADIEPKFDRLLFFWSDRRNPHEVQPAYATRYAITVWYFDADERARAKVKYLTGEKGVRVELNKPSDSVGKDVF

Sequence	substrate hydroxylation after 15 min (PHD2 [1]) [%]	Stopped-flow, 520 nm (PHD2) krise phase (PHD2 [2]) [s⁻¹]	Stopped-flow, 520 nm (PHD2) kfall phase (PHD2 [2]; listed as NODD HIF-2α)	Stopped-flow, 520 nm (PHD2) kfall phase (PHD2 [2]) [s⁻¹]
EELAQLAPTPGDAIISLDF [HIF-2α NODD, 19-mer fragment (398–416) of the HIF-2α N-terminal oxygen-dependent degradation domain, PHD2 substrate]	20	0.003 ± 0.001	0.195 ± 0.003 s⁻¹ and 0.195 ± 0.009 s⁻¹	–
ELDLETLAPYIPMDGEDFQ [HIF-2α CODD, 19-mer fragment (523–541) of the HIF-2α C-terminal oxygen-dependent degradation domain, PHD2 substrate]	90	0.027 ± 0.001	–	0.450 ± 0.010
